pEC50: −log10 of the molar value.

For the test, the target named is T1, human IL-17AA (Homo sapiens, UniProt Q16552).
T1 construct: host or cells: HEK (human embryonic kidney) cells
T1 sequence (Q16552 24-155): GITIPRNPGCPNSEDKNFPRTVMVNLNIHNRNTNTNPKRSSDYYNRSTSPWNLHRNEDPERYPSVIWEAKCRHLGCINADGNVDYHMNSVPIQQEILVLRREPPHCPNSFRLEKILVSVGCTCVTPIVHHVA
The test can be described thus: IL-8 release assay in human epithelial keratinocytes adult (HEKa). Format: cell-based. The note with it: HEKa cells, 3 ng/mL HEK-human IL-17AA + 10 ng/mL human TNFalpha; read-out: Rel EC50 IL-8 release assay. Put shortly: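 Adult human epidermal keratinocytes stimulated 68-72 h at 37 °C with 3 ng/mL HEK-derived human IL-17AA plus 10 ng/mL TNF-alpha (final) in the presence of compound; TNF-alpha alone defines 100% inhibition. Secreted IL-8 measured by HTRF as percent of controls; relative IC50/Emax from four-parameter fit (r^2>0.9), cytotoxicity by PrestoBlue.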
One may read the pEC50 as the EC50 on a negative log10 scale, so that one unit is a factor of ten. `Cn1cncc1-c1ccc(NC(=O)[C@@H](NC(=O)OC(C)(C)C)C(C2CCCCC2)C2CCCC2)cc1` (single isomer, unassigned) [Example 313]: the pEC50 was less than 6.00.

As to `Cc1ncn(C)c1-c1ccc(NC(=O)C(NC(=O)c2ccnn2C)C2CCC(F)(F)CC2)cc1` (single isomer, unassigned) [Example 333, N-[1-(4,4-difluorocyclohexyl)-2-[4-(3,5-dimethylimidazol-4-yl)anilino]-2-oxo-ethyl]-2-methyl-pyrazole-3-carboxamide], the pEC50 was less than 6.00.

Consider `Cc1ncn(C)c1-c1ccc(NC(=O)C(NC(=O)c2ccnn2C)C2CCC(F)(F)CC2)cc1` (single isomer, unassigned) [Example 334, N-[1-(4,4-difluorocyclohexyl)-2-[4-(3,5-dimethylimidazol-4-yl)anilino]-2-oxo-ethyl]-2-methyl-pyrazole-3-carboxamide], for which the pEC50 is less than 6.00.

On to `Cn1cncc1-c1ccc(NC(=O)[C@@H](NC(=O)c2ccnn2C)C(C2CCCCC2)C2CCCC2)cc1` (single isomer, unassigned) [Example 339A], for which the pEC50 is 6.00 to 7.00.

As to `Cn1cncc1-c1ccc(NC(=O)[C@@H](NC(=O)c2ccnn2C)C(C2CCCCC2)C2CCCC2)cc1` (single isomer, unassigned) [Example 339B], the pEC50 was 6.00 to 7.00.

In the case of `Cn1cncc1-c1ccc(NC(=O)C(NC(=O)c2ccnn2C)C(c2cccc(Cl)c2)c2cccc(Cl)c2)cc1` (single isomer, unassigned) [Example 373A, N-(1,1-Bis(3-chlorophenyl)-3-((4-(1-methyl-1H-imidazol-5-yl)phenyl)amino)-3-oxopropan-2-yl)-1-methyl-1H-pyrazole-5-carboxamide], the pEC50 is 6.00 to 7.00.

As to `Cn1cncc1-c1ccc(NC(=O)C(NC(=O)c2ccnn2C)C(c2cccc(Cl)c2)c2cccc(Cl)c2)cc1` (single isomer, unassigned) [Example 373B, N-(1,1-Bis(3-chlorophenyl)-3-((4-(1-methyl-1H-imidazol-5-yl)phenyl)amino)-3-oxopropan-2-yl)-1-methyl-1H-pyrazole-5-carboxamide], the pEC50 is less than 6.00.

Take `Cn1cncc1-c1ccc(NC(=O)C(NC(=O)c2ccnn2C)C(c2cccc(F)c2)c2cccc(F)c2)cc1` (single isomer, unassigned) [Example 374A, N-(1,1-Bis(3-Fluorophenyl)-3-((4-(1-methyl-1H-imidazol-5-yl)phenyl)amino)-3-oxopropan-2-yl)-1-methyl-1H-pyrazole-5-carboxamide]: the pEC50 is less than 6.00.

`Cn1cncc1-c1ccc(NC(=O)C(NC(=O)c2ccnn2C)C(c2cccc(F)c2)c2cccc(F)c2)cc1` (single isomer, unassigned) [Example 374B, N-(1,1-Bis(3-Fluorophenyl)-3-((4-(1-methyl-1H-imidazol-5-yl)phenyl)amino)-3-oxopropan-2-yl)-1-methyl-1H-pyrazole-5-carboxamide]: the pEC50 is less than 6.00.

On to `CC(C)n1nccc1C(=O)NC(C(=O)Nc1ccc(-c2c(C3CC3)n[nH]c2C2CC2)cc1)C(C1CC1)C1CC1` (single isomer, unassigned) [Example 384, N-[1-(dicyclopropylmethyl)-2-[4-(3,5-dicyclopropyl-1H-pyrazol-4-yl)anilino]-2-oxo-ethyl]-2-isopropyl-pyrazole-3-carboxamide], for which the pEC50 was 6.00 to 7.00.

For the compound `CC(C)n1nccc1C(=O)NC(C(=O)Nc1ccc(-c2c(C3CC3)n[nH]c2C2CC2)cc1)C(C1CC1)C1CC1` (single isomer, unassigned) [Example 385, N-[1-(dicyclopropylmethyl)-2-[4-(3,5-dicyclopropyl-1H-pyrazol-4-yl)anilino]-2-oxo-ethyl]-2-isopropyl-pyrazole-3-carboxamide], the pEC50 is greater than 7.00.

On to `Cc1n[nH]c(C)c1-c1ccc(NC(=O)[C@@H](NC(=O)N2CCCCC2CCCO)C2CCCCC2)cc1` (single isomer, unassigned) [Example 460], for which the pEC50 was 6.00 to 7.00.

As for `Cc1n[nH]c(C)c1-c1ccc(NC(=O)[C@@H](NC(=O)N2CCCCC2CCCO)C2CCCCC2)cc1` (single isomer, unassigned) [Example 461], the pEC50 is less than 6.00.

For the compound `Cc1n[nH]c(C)c1-c1ccc(NC(=O)[C@@H](NC(=O)N2CCCC2C(C)(C)O)C2CCCCC2)cc1` (single isomer, unassigned) [Example 464], the pEC50 is less than 6.00.

With `Cc1n[nH]c(C)c1-c1ccc(NC(=O)[C@@H](NC(=O)N2CCCC2C(C)(C)O)C2CCCCC2)cc1` (single isomer, unassigned) [Example 465], the pEC50 was less than 6.00.

As to `Cc1n[nH]c(C)c1-c1ccc(NC(=O)[C@@H](NC(=O)N2CCCC2CCO)C2CCCCC2)cc1` (single isomer, unassigned) [Example 466], the pEC50 is less than 6.00.

With `Cc1n[nH]c(C)c1-c1ccc(NC(=O)[C@@H](NC(=O)N2CCCC2CCO)C2CCCCC2)cc1` (single isomer, unassigned) [Example 467], the pEC50 was less than 6.00.

Regarding `Cc1n[nH]c(C)c1-c1ccc(NC(=O)[C@@H](NC(=O)N2CCCCC2CCO)C2CCCCC2)cc1` (single isomer, unassigned) [Example 470], the pEC50 is less than 6.00.

For the compound `Cc1n[nH]c(C)c1-c1ccc(NC(=O)[C@@H](NC(=O)N2CCCCC2CCO)C2CCCCC2)cc1` (single isomer, unassigned) [Example 471], the pEC50 is less than 6.00.

Consider `Cc1n[nH]c(C)c1-c1ccc(NC(=O)[C@@H](NC(=O)N2CCCC2CO)C2CCCCC2)cc1` (single isomer, unassigned) [Example 473], for which the pEC50 was less than 6.00.

`Cc1n[nH]c(C)c1-c1ccc(NC(=O)[C@@H](NC(=O)N2CCCC2CO)C2CCCCC2)cc1` (single isomer, unassigned) [Example 474]: the pEC50 was less than 6.00.

With `Cc1n[nH]c(C)c1-c1ccc(NC(=O)[C@@H](NC(=O)c2ccnn2C)C2CCCCC2)cc1` [Example 1, N-[(1S)-1-cyclohexyl-2-[4-(3,5-dimethyl-1H-pyrazol-4-yl)anilino]-2-oxo-ethyl]-2-methyl-pyrazole-3-carboxamide], the pEC50 was 6.00 to 7.00.

Take `Cc1n[nH]c(C)c1-c1ccc(NC(=O)[C@@H](NC(=O)c2ccnn2C)C(c2ccccc2)c2ccccc2)cc1` [Example 2, N-[(1S)-1-benzhydryl-2-[4-(3,5-dimethyl-1H-pyrazol-4-yl)anilino]-2-oxo-ethyl]-2-methyl-pyrazole-3-carboxamide]: the pEC50 was 6.00 to 7.00.

For the compound `Cc1n[nH]c(C)c1-c1ccc(NC(=O)[C@@H](NC(=O)c2ccnn2C)C2CCCCCC2)cc1` [Example 3, N-[(1S)-1-cycloheptyl-2-[4-(3,5-dimethyl-1H-pyrazol-4-yl)anilino]-2-oxo-ethyl]-2-methyl-pyrazole-3-carboxamide], the pEC50 is greater than 7.00.

As to `Cc1n[nH]c(C)c1-c1ccc(NC(=O)[C@@H](NC(=O)c2ccnn2C)[C@@H]2CCc3ccc(Br)cc32)cc1` [Example 4, N-[(1S)-1-[(1R)-6-bromoindan-1-yl]-2[4-(3,5-dimethyl-1H-pyrazol-4-yl)anilino]-2-oxo-ethyl]-2-methyl-pyrazole-3-carboxamide], the pEC50 was 6.00 to 7.00.

In the case of `Cc1n[nH]c(C)c1-c1ccc(NC(=O)[C@@H](NC(=O)c2ccnn2C)[C@H]2CCc3ccc(Br)cc32)cc1` [Example 5, N-[(1S)-1-[(1S)-6-bromoindan-1-yl]-2[4-(3,5-dimethyl-1H-pyrazol-4-yl)anilino]-2-oxo-ethyl]-2-methyl-pyrazole-3-carboxamide], the pEC50 is greater than 7.00.

Regarding `Cc1n[nH]c(C)c1-c1ccc(NC(=O)[C@@H](NC(=O)c2ccnn2C)[C@H]2CCCc3ccc(Br)cc32)cc1` [Example 6, N-[(1S)-1-[(1S)-7-bromotetralin-1-yl]-2-[4 (3,5-dimethyl-1H-pyrazol-4-yl)anilino]-2-oxo-ethyl]-2-methyl-pyrazole-3-carboxamide], the negative-log EC50 (pEC50) was greater than 7.00.

Consider `Cc1n[nH]c(C)c1-c1ccc(NC(=O)[C@@H](NC(=O)c2ccnn2C)[C@H]2CCCCC(F)(F)C2)cc1` [Example 7, N-[(1S)-1-[(1S)-3,3-difluorocycloheptyl]-2-[4-(3,5-dimethyl-1H-pyrazol-4-yl)anilino]-2-oxo-ethyl]-2-methyl-pyrazole-3-carboxamide], for which the negative-log EC50 (pEC50) was 6.00 to 7.00.

Take `Cc1n[nH]c(C)c1-c1ccc(NC(=O)[C@@H](NC(=O)c2ccnn2C(C)(C)C)C2CCCCC2)cc1` [Example 8, 2-tert-butyl-N-[(1S)-1-cyclohexyl-2-[4-(3,5-dimethyl-1H-pyrazol-4-yl)anilino]-2-oxo-ethyl]pyrazole-3-carboxamide]: the negative logarithm of the EC50 (pEC50) is less than 6.00.

On to `CCn1nccc1C(=O)N[C@H](C(=O)Nc1ccc(-c2c(C)n[nH]c2C)cc1)C1CCCCC1` [Example 9, N-[(1S)-1-cyclohexyl-2-[4-(3,5-dimethyl-1H-pyrazol-4-yl)anilino]-2-oxo-ethyl]-2-ethyl-pyrazole-3-carboxamide], for which the negative-log EC50 (pEC50) was greater than 7.00.

With `Cc1n[nH]c(C)c1-c1ccc(NC(=O)[C@@H](NC(=O)c2ccnn2C(C)C)C2CCCCC2)cc1` [Example 10, N-[(1S)-1-cyclohexyl-2-[4-(3,5-dimethyl-1H-pyrazol-4-yl)anilino]-2-oxo-ethyl]-2-isopropyl-pyrazole-3-carboxamide], the pEC50 is greater than 7.00.

Regarding `Cc1n[nH]c(C)c1-c1ccc(NC(=O)[C@@H](NC(=O)c2ccnn2C)C2CCC(F)(F)CC2)cc1` [Example 11, N-[(1S)-1-(4,4-difluorocyclohexyl)-2-[4-(3,5-dimethyl-1H-pyrazol-4-yl)anilino]-2-oxo-ethyl]-2-methyl-pyrazole-3-carboxamide], the pEC50 was 6.00 to 7.00.
